Measurements taken from patent US3989835A, “Method of using 6-substituted amino phenyl-2,3,5,6-tetra-hydro[2,1-b]thiazoles for controlling gastrointestinal nematodes” (American Cyanamid Company, priority 1974, dated 1976).
Where a name gives a salt, the structure may show the parent alone.

Tested on: Nematospiroides dubius
Test: Anthelmintic efficacy against N. dubius in mice, single oral dose
Type: in vivo, Nematospiroides dubius (in albino female mice)
Conditions: for inhibition in vivo at 100 mg/kg: single oral dose 100 mg./Kg.; for inhibition in vivo at 5 mg/kg: single oral dose 5.0 mg./Kg.; for inhibition in vivo at 50 mg/kg: single oral dose 50 mg./Kg.; for inhibition in vivo at 20 mg/kg: single oral dose 20 mg./Kg.; for Approx. ED50 / ED50: as Base, single oral dose, mice, > indicates inactive at dose shown; for ED50: read-out: Approx. ED50
Description: Albino female mice are each inoculated with about 20 infectious larvae of Nematospiroides dubius. This nematode is a representative of the economical important trichostrongylis worms of ruminants and other hosts, and of nematodes in general. Twenty-two days after inoculation, groups of four randomly selected mice containing adult N. dubius are given single oral doses of test compounds dissolved or suspended in 0.4 ml. of water per 20 gram mouse. At 26 or 27 days after inoculation, treated mice and in each test four randomly selected groups of untreated mice are necropsied. The number of worms in the small intestine of each mouse are determined by microscopic examination. Average worm numbers for each treated group and for the untreated controls are computed and the percent efficacy determined by the customary formula:
(Average Worms in Control - Average Worms in Treated)/(Average Worms in Control) X 100.

[1] = Heligmosomoides polygyrus, po, molar-adjusted, read-out: Percent Nematospiroides Activity
[2] = Heligmosomoides polygyrus, po, single oral dose 10 mg./Kg., molar-adjusted, read-out: Percent Nematospiroides Activity

CC(=O)Nc1cccc(C2CN3CCSC3=N2)c1 (stereo not drawn) [H--N--CO--CH3 l-]
Percent Nematospiroides Activity (single oral dose 4.0 mg./Kg., molar-adjusted): 51% | Percent Nematospiroides Activity (single oral dose 10 mg./Kg., molar-adjusted): 100%

CS(=O)(=O)Nc1cccc(C2CN3CCSC3=N2)c1 (stereo not drawn) [H--N--SO2 CH3]
inhibition in vivo at 100 mg/kg [1]: 100%

CC(CO)Nc1cccc(C2CN3CCSC3=N2)c1 (stereo not drawn) [HN--CH(CH3)CH2 OH]
inhibition in vivo at 5 mg/kg [1]: 1% | inhibition in vivo at 10 mg/kg [2]: 1% | inhibition in vivo at 50 mg/kg [1]: 67%

c1ccc(CNc2cccc(C3CN4CCSC4=N3)c2)cc1 (stereo not drawn) [Table XII b1716]
inhibition in vivo at 5 mg/kg [1]: 56% | inhibition in vivo at 10 mg/kg [2]: 91% | inhibition in vivo at 20 mg/kg [1]: 95%

COc1ccc(CNc2cccc(C3CN4CCSC4=N3)c2)cc1 (stereo not drawn) [Table XII b1718]
inhibition in vivo at 10 mg/kg [2]: 40% | inhibition in vivo at 20 mg/kg [1]: 100% | inhibition in vivo at 50 mg/kg [1]: 100% | inhibition in vivo at 100 mg/kg [1]: 100%

O=C(Cc1ccccc1)Nc1cccc(C2CN3CCSC3=N2)c1 (stereo not drawn) [Table XII b1825]
inhibition in vivo at 2 mg/kg (Heligmosomoides polygyrus, po, single oral dose 2.0 mg./Kg., molar-adjusted, read-out: Percent Nematospiroides Activity): 44% | inhibition in vivo at 5 mg/kg [1]: 76% | inhibition in vivo at 10 mg/kg [2]: 95%

Nc1ccc(Br)c(C2CN3CCSC3=N2)c1 (stereo not drawn) [Table XIII b1902]
inhibition in vivo at 30 mg/kg (Heligmosomoides polygyrus, po, single oral dose 30 mg./Kg., molar-adjusted, read-out: Percent Nematospiroides Activity): 37% | inhibition in vivo at 60 mg/kg (Heligmosomoides polygyrus, po, single oral dose 60 mg./Kg., molar-adjusted, read-out: Percent Nematospiroides Activity): 97%

CC(=O)Nc1ccc(Br)c(C2CN3CCSC3=N2)c1 (stereo not drawn) [Table XIII b1903]
inhibition in vivo at 50 mg/kg [1]: 100% | inhibition in vivo at 100 mg/kg [1]: 100%

Nc1cccc(C2CN3CCSC3=N2)c1 (stereo not drawn) [d 2HCl NH2 meta, d-2,3,5,6-Tetrahydro-6-(m-aminophenyl)imidazo[2,1-b]thiazoleDihydrochloride]
Approx. ED50: 10 Mg./Kg.

Nc1ccc(C2CN3CCSC3=N2)cc1 (stereo not drawn) [d 2HCl NH2 para, reference compound]
Approx. ED50: > 20 Mg./Kg.

O=CNc1ccc(C2CN3CCSC3=N2)cc1 (stereo not drawn) [d Base NH--HCO para, reference compound]
Approx. ED50: > 40 Mg./Kg.

O=[N+]([O-])c1cccc(C2CN3CCSC3=N2)c1 (stereo not drawn) [d HCl NO2 meta, d-6-(m-nitrophenyl)-2,3,5,6-tetrahydroimidazo[2,1-b]thiazole hydrochloride, reference compound]
Approx. ED50 (hydrochloride): > 30 Mg./Kg.

O=[N+]([O-])c1ccc(C2CN3CCSC3=N2)cc1 (stereo not drawn) [d HCl NO2 para, reference compound]
Approx. ED50: > 200 Mg./Kg.

Nc1ccc(C2CN3CCSC3=N2)cc1 (stereo not drawn) [l 2HCl NH2 para, reference compound]
ED50 (Heligmosomoides polygyrus, po): > 10 mg/kg

CNc1ccc(C2CN3CCSC3=N2)cc1 (stereo not drawn) [l 2HCl NH--CH3 para, reference compound]
ED50 (Heligmosomoides polygyrus, po): > 50 mg/kg

O=CNc1ccc(C2CN3CCSC3=N2)cc1 (stereo not drawn) [l Base NH--HCO para, reference compound]
Approx. ED50: > 10 Mg./Kg.

O=[N+]([O-])c1cccc(C2CN3CCSC3=N2)c1 (stereo not drawn) [l HCl NO2 meta, l-6-(m-Nitrophenyl)-2,3,5,6-tetrahydroimidazo[2,1-b]thiazole hydrochloride, reference compound]
Approx. ED50 (hydrochloride): 12 Mg./Kg.

O=[N+]([O-])c1ccc(C2CN3CCSC3=N2)cc1 (stereo not drawn) [l HCl NO2 para, reference compound]
Approx. ED50: 40 Mg./Kg.
